The values below come from patent US20260151413A1, “ANTICANCER DRUG CONJUGATES” (Ariel Scientific Innovations Ltd., priority 2022, published 2026).

Molecules are shown by their SMILES. “Also recorded” adds a separate entry of the source. Where two headings read alike, the source gives them in different places.

As usually defined, the IC50 is the point on the concentration scale where inhibition reaches its midpoint. High values mean weaker potency, low ones greater potency.

In data set [1] the test system is OCI-AML3, KG-1a, Granta, Jeko-1 and BV-173 cells. The experiment in a line: Apoptosis assay (Muse AnnexinV and Dead Cell kit). Format: cell-based. The note with it: 50-250 nM depending on cell line, 48 hours, compared to the parental drug. On the procedure: Cells were analyzed using the multifunctional Muse®AnnexinV and Dead Cell kit (Luminex/Millipore, Austin, Texas, USA). Cells were treated with indicated concentrations of Doxorubizen, the corresponding parent drug, or with DMSO. After 48 hours of incubation cells were harvested, washed twice in PBS, and 2×10^5 cells were stained with 100 μl of Muse AnnexinV and Dead Cell Reagent. Samples were incubated for 20 min at room temperature in the dark. Cells were analyzed by the Muse®CellAnalyzer system (Millipore, Billerica, MA, USA), and the percentage of apoptosis was determined using Guava software (Luminex/Millipore, USA, version 3.3).
Chimera 9 was evaluated for its biological impact on mitochondrial function and cell death. To that end, the inventor treated the following cell lines OCI-AML3 (100 nM), KG-1a (100 nM), Granta (250 nM), Jeko-1 (50 nM) and BV-173 (50 nM) with doxorubicin or chimera 9.

For the next data set, the system named is DND41. The experiment in a line: WST-1 proliferation assay, DND41. Format: cell-based, human. The note with it: Homo sapiens, DND41; WST-1, 48 hours of treatment. On the procedure: (§1) Albert Pinhasov (Ariel University, Ariel, Israel). […] Granta cells were kindly provided by Prof.
(§2) Table 3 [resents the calculated IC50 values (μM) for each chimera in different hematological malignancies cell-lines. The proliferation rate was measured by WST-1 assay after 48 hours of treatment. The result shown for each concentration point represents the […]
A general note: Formazan colour is commonly taken as a measure of viable cells.

A further data set has as its system MINO. The experiment in a line: WST-1 proliferation assay, MINO. The data set is classed as cell-based, human. The note with it: Homo sapiens, MINO; WST-1, 48 hours of treatment. The protocol:
as §1, §2

In data set [2] the test system is 10 hematological cell-lines. The experiment in a line: In vitro cytotoxicity screening on the panel of hematological cell-lines (WST-1).
Experimental: The above cells were cultured in RPMI medium (Gibco, Thermo Fisher Scientific Inc., USA). […] All media were supplemented with 10% heat-inactivated Fetal Bovine Serum (FBS, Biological industries, Israel), 2 mM glutamine (Biological industries, Israel) and 1% penicillin and streptomycin (Biological industries, Israel). Cells were cultured at 37° C. in a humidified incubator with 5% CO2.
Growth inhibition in hematological malignancies cell-lines was measured by tetrazolium WST-1 assay (Roche, Basel, Switzerland). Cells (1*10^4) were treated with various concentrations of the specific chimera or parental drug. After 48 h of incubation, 10 μl of WST-1 reagent was added to the plate and incubated for 1 h at 37° C., at which point the absorbance (450 nm) was measured in an ELISA plate reader (Synergy HTX multi-mode reader, Winooski, Vermont, USA).
MUTZ5 and MHH-CALL4; B-cell Acute lymphocytic leukemia (B-cell ALL) model. DND41; T-ALL model. KG-1a and OCI-AML-3; Acute myeloid leukemia (AML) model and HEL; erythroleukemia model.
Data set [3] relates to triple negative breast cancer (TNBC) MDA 231 cells. The conditions noted are these: for weight maintenance, survival and tumor growth suppression compared with doxorubicin: ip administration. The protocol:
Five-week-old athymic Nude-Foxn 1nu male mice (ENVIGO Labs, Nes Ziona, Israel) were subcutaneously inoculated on the dorsal left side with […] (1×10^6 cell) into nu/nu mice, 0.2 mL per mouse) and tumors allowed to establish over time. When tumor volume reached 100 mm^3, Doxorubicin (Dox) and Doxorubizen (Chimera 9) were administered intraperitoneally (ip). Animals were removed from an experiment if either of the following conditions were fulfilled: reduction of 20% or more body weight; tumor volume>0.55 cm^3. The tumor dimensions were measured using a Vernier caliper and the volume was calculated according to the equation: Volume (mm^3) ¼ length×width×width×½ three times per week. The in vivo experiments were approved by the Animal Ethics Committee (Authorization number IL-179-06-19).
Chimera 9 was also evaluated for its effect on breast cancer model. For this evaluation, […] nude female (6-8 weeks) mice (groups 1, 2, two mice per group, groups 3, 4, 5 three mice per group) were inoculated with triple negative breast cancer (TNBC) MDA 231 cells. Group 1 was used as the control for tumor growth. After 10 days, mice were […] (ip) administered with Doxorubicin (groups 2 and 4) and Chimera 9 (Doxorubizen) (groups 3 and 5) in the following regime: ip administration of 2.5 mg/kg Doxorubicin once per week (group 2) and three sequential days per week (group 4); ip administration of 3.5 mg/kg chimera 9 once per week (group 3) and three sequential days per week (group 5). Overall experiment carried out for 5 weeks and 4 days, when the tumor volumes for all the groups were monitored. Tumors were then resected and measured.

For a further data set, the system named is KG-1a. Description: WST-1 proliferation assay, KG-1a. The conditions noted are these: Homo sapiens, KG-1a; WST-1, 48 hours of treatment. Format: cell-based. On the procedure:
as §1, §2

Where [4] appears, read: Group 5: ip 3.5 mg/kg, three sequential days per week.

Regarding `COC(=O)N(C)/N=N/c1ccc(CNC2CC(OC3CC(O)(C(=O)CO)Cc4c(O)c5c(c(O)c43)C(=O)c3c(OC)cccc3C5=O)OC(C)C2O)cc1` (centres unmarked) [Chimera 9, (E)-methyl-3-(4-(((3-hydroxy-2-methyl-6-((3,5,12-trihydroxy-3-(2-hydroxyacetyl)-10-methoxy-6,11-dioxo-1,2,3,4,6,11-hexahydrotetracen-1-yl)oxy)tetrahydro-2H-pyran-4-yl)amino)methyl)phenyl)-1-methyltriaz-2-ene-1-carboxylate], the rate of apoptosis result in data set [1] is on record as “substantial increase in the rate of apoptosis”. Also, the IC50 worked out at 640 nM in the data set on DND41, 480 nM in the data set on MINO and 400 nM with KG-1a. The cytotoxic effect entry in data set [2] (250 nM) is given as “exceptional cytotoxic effect”. The “effect on proliferation rate across the examined cell-lines” value in data set [2] (10 hematological cell-lines, WST-1) was “inhibited the proliferation rate in all the examined cell-lines”. Also, the “cytotoxic effect compared to the parental non-conjugated drug” value in data set [2] (chimera vs its parent drug) is reported as “reduced proliferation rate of numerous cell-lines; also recorded: superior to Doxorubicin”. The “outcome compared to Group 2 (Doxorubicin once per week)” value in data set [3] (Group 3: ip 3.5 mg/kg once per week) was “no statistical significance”. In addition, in data set [3] (setting [4]), the body weight result is listed as “didn't lose weight”. The toxicity vs doxorubicin result in data set [3] (setting [4]) is on record as “reduced toxicity”. Further, the tumor volume entry in data set [3] (setting [4]) is “even reduced”. Moreover, the survival entry in data set [3] (Group 5: ip 3.5 mg/kg, three sequential days per week, 3.5 mg/kg) is reported as “full survival; also recorded: survived until the end of the experiment”. The “weight maintenance, survival and tumor growth suppression compared with doxorubicin” value in data set [3] is on record as “markedly superior”; in data set [3] (listed as Doxorubizen) it was “profoundly superior”.
